According to PubChem BioAssay (NCI):
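Tested at 5 concentrations; 48 h exposure; 96-well plates; endpoints linearly interpolated, else capped at highest concentration. The concentration for 50% growth inhibition is given as GI50. TGI: concentration producing complete growth inhibition.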

Columns and labels:
Assay in all cases: NCI anticancer screen, dose series, 48 h
MOLT-4 leukemia = system: MOLT-4 leukemia
SK-OV-3 ovarian = system: SK-OV-3 ovarian
NCI-H522 lung = system: NCI-H522 lung
LOX IMVI melanoma = system: LOX IMVI melanoma
CAKI-1 renal = system: CAKI-1 renal
SK-MEL-2 melanoma = system: SK-MEL-2 melanoma
SW-620 colon = system: SW-620 colon
KM12 colon = system: KM12 colon
SF-268 CNS = system: SF-268 CNS
SNB-75 CNS = system: SNB-75 CNS

Structure (SMILES) | GI50 (MOLT-4 leukemia) [µM] | TGI (MOLT-4 leukemia) [µM] | GI50 (SK-OV-3 ovarian) [µM] | TGI (SK-OV-3 ovarian) [µM] | GI50 (NCI-H522 lung) [µM] | TGI (NCI-H522 lung) [µM] | GI50 (LOX IMVI melanoma) [µM] | TGI (LOX IMVI melanoma) [µM] | GI50 (CAKI-1 renal) [µM] | TGI (CAKI-1 renal) [µM] | GI50 (SK-MEL-2 melanoma) [µM] | TGI (SK-MEL-2 melanoma) [µM] | GI50 (SW-620 colon) [µM] | TGI (SW-620 colon) [µM] | GI50 (KM12 colon) [µM] | TGI (KM12 colon) [µM] | GI50 (SF-268 CNS) [µM] | TGI (SF-268 CNS) [µM] | GI50 (SNB-75 CNS) [µM] | TGI (SNB-75 CNS) [µM]
Cn1cc(C2=C(c3cccc(N)c3)C(=O)NC2=O)c2ccccc21 | 14.1 | > 25 | > 19 | > 25 | 15.5 | > 25 | 8.76 | > 25 | 13 | > 25 | 14.3 | > 25 | 17.8 | > 25 | 7.95 | > 20 | 24.6 | > 25 | 0.0779 | > 25
Cc1noc2cccc(OCc3ccccc3)c12 |  | > 100 |  | > 100 |  | > 100 |  | > 100 |  | > 100 |  | 94.5 |  | > 100 |  | > 100 |  | > 100 |  | 87.6
CN(CCCCCl)P(=O)(OCc1ccc([N+](=O)[O-])o1)OCC1OC(n2ccc(N)nc2=O)C(F)(F)C1O (stereo unspecified) | 0.379 | 8.92 | 2.22 | > 100 | > 39 | > 100 | 0.754 | > 40.6 | 0.223 |  | > 80.3 | > 100 | > 62 | > 100 | 14.8 | > 73.9 | 0.257 |  | 12.5 | 97.5
O=C1C2C(C(=O)[N]1[Hg][c]1cccs1)C1(Cl)C(Cl)=C(Cl)C2(Cl)C1(Cl)Cl (stereo unspecified) | 0.371 | 5.01 | 5.71 | 17.9 | 0.162 | 0.432 | 0.708 | 1.94 | 1.29 | 2.64 | 1.56 | 3.23 | 1.02 | 3.08 | 11.7 | 24.3 | 1.41 | 2.84 | 1.37 | 4.81
CC/C(=C(/c1ccc(OCCN(C)C)cc1)c1ccc(OC(=O)CCC(=O)c2c(C)[nH]c(/C=C3\N=C(c4ccc[nH]4)C=C3OC)c2C)cc1)c1ccccc1 | 0.974 | 4.25 | 6.99 | 29.6 | 1.88 | 5.38 | 0.456 | 1.69 | 2.66 | 16 | 2.42 | 6.2 | 0.76 | 2.57 | 1.21 | 10 | 2.62 | 17.8 | 2.45 | 9.86
COc1cc(-c2nc3sccn3c2-c2ccnc(NCCNS(=O)(=O)c3ccc(Cl)cc3)n2)ccc1F | 1.42 | > 100 | 6.82 | > 100 | 2.59 | > 100 | 3.39 | > 100 | 4.89 | > 100 | 3.46 | 35.3 | 10.8 | > 100 | 4.26 | > 100 | 5.75 | > 100 | 4.48 | > 100
COC(c1cccc(C(O)(C(F)(F)F)C(F)(F)F)c1)(C(F)(F)F)C(F)(F)F |  | 40.5 |  | 34.4 |  | 26.5 |  | 34.1 |  | 39.7 |  | 33.7 |  | 32.9 |  | 33.9 |  | 38.5 |  | 32.1
O=c1c2c3c(sc2n2c(-c4cc(-c5ccccc5)no4)nnc2n1Cc1ccccc1)CCCC3 | 3.72 | 32.7 | 38.4 | > 100 | 3.4 | 28.1 | 7.76 | > 62.4 | 10.2 | 61.5 | 4 | 23.5 | 31.4 | > 100 | 15.8 | 55.2 | 15.6 | 68.3 | 11.2 | > 100
COC(=O)C1CCC(Nc2ccc(C)cc2C)=N1 (stereo unspecified) |  | > 100 |  | > 100 |  | > 100 |  | > 100 |  | > 100 |  | > 100 |  | > 100 |  | > 100 |  | > 100 |  | > 100
CN(Cc1ccc(Cl)cc1)c1ccc(CO)c(Cl)c1 | 18 | 66.2 | 5.18 | 16.9 | 13.4 | 31.2 | 4.48 | 16.7 | 1.43 | 12 | 4.06 | 16.3 | 3.85 | 19.5 | 13 | 27.2 | 14.2 | 29.5 | 7.06 | 26.4
CCOC(=O)/C(=N\OC)C(O)C(F)(F)F (stereo unspecified) |  | > 100 |  | > 100 |  | > 100 |  | > 100 |  | > 100 |  | > 100 |  | > 100 |  | > 100 |  | > 100 |  | > 100
C/C=C/C1=C(Cl)C(=O)[C@@H](Cl)[C@@]1(O)C(=O)OC |  | 12.9 |  | 30.6 |  | 2.52 |  | 6.37 |  | 8.4 |  | 7.56 |  | 3.1 |  | 22.2 |  | 24.2 |  | 32.8
COc1ccc(-n2cc(-c3cc(OC)c(OC)c(OC)c3)nc2SCc2ccccc2)cc1 | 9.03 | > 100 | > 100 | > 100 | 31.5 | > 100 | 74.7 | > 100 | > 100 | > 100 | > 100 | > 100 | > 100 | > 100 | 60 | > 100 | > 100 | > 100 | 7.04 | 66.8
COc1ccc2c(c1)=C(C=C1C=CN(O)C=C1)C(=O)N=2 | 31.2 | > 100 | 18.8 | 54.5 | 20.5 | 61.6 | 23.9 | > 67.3 | 28.2 | > 89.6 | 26.7 | 73.7 | 25.5 | > 67.8 | 17.4 | 41.3 | 28.1 | 93.2 | 15.6 | > 88.4
N#Cc1ncc(-c2ccc(C(F)(F)F)cc2)c(NCc2cc(C(F)(F)F)cc(C(F)(F)F)c2)n1 | 3.17 | 9.79 | 5.23 | 47.3 | 2.92 | 9.86 | 3.02 | 16.5 | 3.6 | 61.9 | 2.89 | 7.15 | 3.13 | > 100 | 3.17 | 10.1 | 8.17 | > 100 | 3.19 | 68.8
CCC1C(=O)OCc2c1cc1n(c2=O)Cc2cc3ccccc3nc2-1 (stereo unspecified) |  | > 22 |  | > 100 |  | > 44.4 |  | > 51.2 |  | 16.3 |  | > 100 |  | > 100 |  | > 100 |  | > 100 |  | 25.9
CC(C)Nc1ccc(Nc2ccccc2)cc1 | 21.2 | > 100 | 39.9 | > 100 | 13.7 | 28.8 | 13.1 | 29.1 | 4.06 | 17.4 | 25.6 | 66.3 | 15.8 | 45.8 | 22.4 | > 100 | 17 | 50.4 | 21.5 | > 100
O=C(CCC(=O)Nc1cccc(Cl)c1)CC(=O)c1ccc(F)cc1 |  | > 100 |  | > 100 |  | > 100 |  | > 100 |  | > 100 |  | > 100 |  | > 100 |  | > 100 |  | > 100 |  | > 100
CCC[CH2][Sn]([CH2]CCC)([O]C(=O)c1cc(F)ccc1F)[O][Sn]([CH2]CCC)([CH2]CCC)[O]C(=O)c1cc(F)ccc1F | 0.111 |  | 1.03 | 2.34 |  | 0.0658 | 0.132 | 0.306 | 0.129 | 0.621 | 0.18 | 0.496 | 0.116 | 0.274 | 0.999 | 2.32 | 0.216 | 0.798 | 0.365 | 1.66
Nc1ncnc2c1ncn2Cc1ccc(C23CC4CC(CC(C4)C2)C3)c(OCc2cc(F)c(F)cc2F)c1 | 2.69 | 7.97 | 87.7 | > 100 | 7.86 | > 100 | 5.36 | > 100 | 2.32 | 6.9 | > 100 | > 100 | 7.25 | > 100 | 3.92 | > 100 | 8.57 | > 100 | > 100 | > 100
CC(C)(O)C#Cc1ccc(/C=C/C(=O)c2ccccc2)s1 | 16.8 | 43.6 | 16.5 | 30.1 | 16 | 32.7 | 13.8 | 26.7 | 16.9 | 30.6 | 17.6 | 33.9 | 19.5 | 40.9 | 4.37 | 14.4 | 16.7 | 32.8 | 13.7 | 27
Cc1cc2cc3cc(C)c(N(C)C)cc3[n+](C)c2cc1N(C)C | 3.58 | > 100 | 5.05 | > 100 | 5.35 | 36.1 | 3.14 | 40.8 | 2.7 | > 100 | 4.57 | > 100 | 2.92 | 18 | 2.72 | 11.3 | 4.1 | 20.5 | 3.7 | 31.4
Cc1nc(-c2ccccc2)c(Cc2ccccc2O)c(=O)[nH]1 |  | > 100 |  | > 100 |  | > 100 |  | > 100 |  | > 100 |  | > 100 |  | > 100 |  | > 100 |  | > 100 |  | 97.9
CCCc1cc(O)c2c3c(c(=O)oc2c1)CN(C)CC3 | 44.3 | > 100 | 85 | > 100 | 45.1 | > 100 | 76.2 | > 100 | > 100 | > 100 | > 100 | > 100 | > 100 | > 100 | 87.3 | > 100 | > 100 | > 100 | 22.1 | > 100
CC(=O)Nc1ccc(/C=C/C(=O)c2ccccc2)cc1 | 5.55 | 68.4 | 27.1 | 96 | 6.85 | 23.2 | 4.71 | 18.9 | 3.77 | 16.2 | 19.7 | 35.5 | 4.32 | 17.1 | 4.47 | 16 | 15.9 | 37.5 | 18.2 | 42.2
CCCCOc1ccc(NC(=O)n2nc(N)c3ccccc32)cc1 | 0.921 | 34.8 | 49.2 | > 100 | 23.9 | > 89.1 | 11.6 | 24.2 | 29.1 | 71.9 | 27.8 | 76 | 19 | 37.2 | 13.2 | 54.2 | 20.3 | > 100 | 29.6 | 82.4
CC(=O)N1N=C(c2ccc(Nc3nc(Nc4ccc(Cl)cc4)nc(Nc4ccc(Cl)cc4)n3)cc2)CC1c1ccc([N+](=O)[O-])cc1 (stereo unspecified) | 1.92 | 8.35 | 4.3 | 34.2 | 6.39 | > 100 | 5.66 | > 47.1 | 6.1 | 32.5 | 5.38 | > 45.6 | 8.77 | > 100 | 5.72 | > 62.4 | 7.14 | > 100 | 3.71 | > 54.6
N#Cc1cccc(OCc2nc(N)nc(N)c2-c2ccc(Cl)c(Cl)c2)c1 | 2.83 | > 100 | 9.56 | > 100 | 5.62 | > 100 | 0.575 | > 100 | 0.893 | > 100 | 6.68 | > 100 | 0.484 | > 100 | 2.96 | 82.4 | 3.05 | > 100 | 5.67 | > 100
